{"source": "patent US5952324A", "about": "“Bicyclic oxazine and thiazine oxazolidinone antibacterials” (Pharmacia & Upjohn Company, priority 1997, dated 1999)"}
{"test_system": "S. aureus UC ® 9213", "experiment": "In vivo murine assay, ED50 against S. aureus UC 9213 infection (survival, female mice)", "details": "Staphylococcus aureus, UC9213, 144 h; PO; female mice infected intraperitoneally; dosed one and five hours after infection, six dose levels; survival six days, probit analysis; read-out: ED50 (mg/kg), Example, PO", "protocol": "Antimicrobial activity was tested in vivo using a Murine Assay procedure. Groups of female mice were injected intraperitoneally with bacteria which were thawed just prior to use and suspended in brain heart infusion with 4% Brewer's yeast UC9213 (Staphylococcus aureus) or brain hear infusion (Streptococcus species). Antibiotic treatment a six dose levels per drug was administered on hour and five hours after infection by either oral or subcutaneous routes. Survival was observed daily for six days. ED50 values based on mortality ratios were calculated using probit analysis. The subject compounds were compared against a well-known antibacterial (Vancomycin) as a control.\nIn Vivo Activity Against S. aureus UC ® 9213", "units": {"ED50": "mg/kg"}}
{"smiles": "CC(=O)NC[C@H]1CN(c2ccc(N3C[C@@H]4C[C@H]3CO4)c(F)c2)C(=O)O1", "note": "[Example 1, (S)-N-[[3-[4-[(1S,4S)-2-oxa-5-azabicyclo[2.2.1]heptan-5-yl]-3-fluorophenyl]-2-oxo-5-oxazolikinyl]methyl]acetamide]", "ED50": 7.7}
{"smiles": "CC(=O)NC[C@H]1CN(c2ccc(N3C[C@H]4CSC[C@H]4C3)c(F)c2)C(=O)O1", "note": "[Example 4, (S)-N-[[3-[3-fluoro-4-(tetrahydro-1H-thieno[3,4-c]pyrrol-5(3H)-yl)phenyl]-2-oxo-5-oxazolidinyl]methyl]acetamide]", "ED50": 4.3}
{"smiles": "CC(=O)NC[C@H]1CN(c2ccc(N3C[C@@H]4CS(=O)(=O)C[C@@H]4C3)c(F)c2)C(=O)O1", "note": "[Example 6, (S)-N-[[3-[3-fluoro-4-(tetrahydro-1H-thieno[3,4-c]pyrrol-5(3H)-yl)phenyl]-2-oxo-5-oxazolidinyl]methyl]acetamide, S,S-dioxide]", "ED50": 3.5}
{"smiles": "CC(=O)NC[C@H]1CN(c2ccc(N3C[C@@H]4C[C@H]3CS4)c(F)c2)C(=O)O1", "note": "[Example 2, (S)-N-[[3-[3-fluoro-4-[(1S,4S)-2-thia-5-azabicyclo[2.2.1]heptan-5-yl]-phenyl]-2-oxo-5-oxazolidinyl]methyl]acetamide]", "ED50": 4.2}
{"smiles": "CC(=O)NC[C@H]1CN(c2ccc(N3C[C@@H]4C[S+]([O-])C[C@@H]4C3)c(F)c2)C(=O)O1", "note": "(stereo partly drawn) [Example 5, (S)-N-[[3-[3-fluoro-4-(tetrahydro-1H-thieno[3,4-c]pyrrol-5(3H)-yl)phenyl]-2-oxo-5-oxazolidinyl]methyl]acetamide, S-oxide]", "ED50": 10}
